Data: patent US20070128217A1 (priority 2003, published 2007)

Columns and labels:
[1] = test system: rabbit serum obtained by immunizing a rabbit with the SARS-CoV strain Frankfurt 1; type: binding; parameters: Binding of a rabbit serum to linear peptides / Binding of a rabbit serum to looped peptides / Rabbit serum linear peptides / Rabbit serum looped peptides / Binding of a rabbit serum to linear peptides of protein N of SARS-CoV Urbani (Rabbit serum linear peptides) / Binding of a rabbit serum to looped/cyclic peptides of protein N of SARS-CoV Urbani (Rabbit serum looped peptides): unit not given here
[2] = test system: antibodies in sera from SARS patients (sera 1a, 1b, 2, 6, 37, 62, London, SARS-yellow, SARS-green); type: binding, human; parameters: Binding of serum 6 to linear peptides of protein X1 of SARS-CoV Urbani / Binding of serum 37 to linear peptides of protein X1 of SARS-CoV Urbani / Binding of serum 6 to looped/cyclic peptide (PEPSCAN-ELISA) / Binding of serum 37 to looped/cyclic peptide (PEPSCAN-ELISA) / Binding of serum 37 to looped/cyclic peptides of protein X1 of SARS-CoV Urbani / Binding of serum 6 to linear peptides of protein X2 / Binding of serum 37 to linear peptides of protein X2 / Binding of serum 37 to looped/cyclic peptides of protein X2 of SARS-CoV Urbani / Binding of serum 6 to linear peptides of protein M of SARS-CoV Urbani / Binding of serum 37 to linear peptides of protein M of SARS-CoV Urbani / Binding of serum 6 to looped/cyclic peptides of protein M of SARS-CoV Urbani / Binding of serum 37 to looped/cyclic peptides of protein M of SARS-CoV Urbani / Binding of serum 6 to linear peptides of protein X3 of SARS-CoV Urbani / Binding of serum 37 to linear peptides of protein X3 of SARS-CoV Urbani / Binding of serum 37 to looped/cyclic peptides of protein X3 of SARS-CoV Urbani / Binding of serum 6 to linear peptides of protein X4 of SARS-CoV Urbani / Binding of serum 37 to linear peptides of protein X4 of SARS-CoV Urbani / Binding of serum 37 to looped/cyclic peptides of protein X4 of SARS-CoV Urbani / Binding of serum 6 to linear peptides of protein X5 of SARS-CoV Urbani / Binding of serum 37 to linear peptides of protein X5 of SARS-CoV Urbani / Binding of serum 37 to looped/cyclic peptides of protein X5 of SARS-CoV Urbani / Binding of serum 6 to linear peptides of protein N of SARS-CoV Urbani / Binding of serum 37 to linear peptides of protein N of SARS-CoV Urbani / Binding of serum 6 to linear peptide (PEPSCAN-ELISA) / Binding of serum 1a to looped/cyclic peptides of protein N of SARS-CoV Urbani / Binding of serum 1b to looped/cyclic peptides of protein N of SARS-CoV Urbani / Binding of serum 2 to looped/cyclic peptides of protein N of SARS-CoV Urbani / Binding of serum 6 to looped/cyclic peptides of protein N of SARS-CoV Urbani / Binding of serum 37 to looped/cyclic peptides of protein N of SARS-CoV Urbani / Binding of serum 62 to looped/cyclic peptides of protein N of SARS-CoV Urbani / Binding of serum London to looped/cyclic peptides of protein N of SARS-CoV Urbani / Binding of serum SARS-green to looped/cyclic peptides of protein N of SARS-CoV Urbani: unit not given here
[3] = test system: control sera (pooled serum of ten healthy LUMC hospital workers; commercial negative donor pooled serum from the Dutch bloodbank); type: binding, human; parameters: Binding of Control serum LUMC to linear peptides / Binding of Control serum Blood-bank to linear peptides / Binding of Control serum LUMC to looped peptides / Binding of Control Serum Blood-Bank to Looped peptides / Binding of Control serum LUMC to linear peptides of the protein M of SARS-CoV Urbani / Binding of Control serum Blood-bank to linear peptides of the protein M of SARS-CoV Urbani / Binding of Control serum LUMC to looped peptides of the protein M of SARS-CoV Urbani / Binding of Control Serum Blood-Bank to Looped peptides of the protein M of SARS-CoV Urbani: unit not given here

## AGTHITMTTVYHITV
[1]
  Binding of a rabbit serum to linear peptides: 0.7
  Binding of a rabbit serum to looped peptides: 0.5

## ASPASTVHATATIPL
[1]
  Binding of a rabbit serum to linear peptides: 1.4
  Binding of a rabbit serum to looped peptides: 0.5

## ASTVHATATIPLQAS
[1]
  Binding of a rabbit serum to linear peptides: 0.9
  Binding of a rabbit serum to looped peptides: 0.6

## ATKIIALNKRWQLAL
[1]
  Recognition of the peptide by the rabbit serum: recognized
[2]
  Binding of serum 1a to linear peptides of protein X1 of SARS-CoV Urbani: 0.7
  Binding of serum 1a to looped/cyclic peptide (PEPSCAN-ELISA): 0.6
  Binding of serum 1b to linear peptides of protein X1 of SARS-CoV Urbani: 0.6
  Binding of serum 1b to looped/cyclic peptide (PEPSCAN-ELISA): 0.4
  Binding of serum 2 to linear peptides of protein X1 of SARS-CoV Urbani: 0.6
  Binding of serum 2 to looped/cyclic peptide (PEPSCAN-ELISA): 0.5
  Binding of serum 6 to linear peptides of protein X1 of SARS-CoV Urbani: 0.7
  Binding of serum 6 to looped/cyclic peptide (PEPSCAN-ELISA): 0.5
  Binding of serum 37 to linear peptides of protein X1 of SARS-CoV Urbani: 0.8
  Binding of serum 37 to looped/cyclic peptide (PEPSCAN-ELISA): 0.6
  Binding of serum 62 to linear peptides of protein X1 of SARS-CoV Urbani: 0.8
  Binding of serum 62 to looped/cyclic peptide (PEPSCAN-ELISA): 0.7
  Binding of serum London to linear peptides of protein X1 of SARS-CoV Urbani: 0.4
  Binding of serum London to looped/cyclic peptide (PEPSCAN-ELISA): 0.3
  Binding of serum SARS-green to linear peptides of protein X1 of SARS-CoV Urbani: 0.3
  Binding of serum SARS-green to looped/cyclic peptide (PEPSCAN-ELISA): 0.3
  Binding of serum SARS-yellow to linear peptides of protein X1 of SARS-CoV Urbani: 0.7
  Binding of serum SARS-yellow to looped/cyclic peptide (PEPSCAN-ELISA): 0.6

## CPSGTYEGNSPFNPL
[1]
  Rabbit serum linear peptides: 0.5
  Rabbit serum looped peptides: 0.7

## CWYLHEGHQTAAFRD
[1]
  Rabbit serum linear peptides: 0.3
  Rabbit serum looped peptides: 0.4

## GFQFICNLLLLFVTI
[2]
  Binding of serum 1a to linear peptides of protein X1 of SARS-CoV Urbani: 0.6
  Binding of serum 1a to looped/cyclic peptide (PEPSCAN-ELISA): 0.5
  Binding of serum 1b to linear peptides of protein X1 of SARS-CoV Urbani: 0.5
  Binding of serum 1b to looped/cyclic peptide (PEPSCAN-ELISA): 0.3
  Binding of serum 2 to linear peptides of protein X1 of SARS-CoV Urbani: 0.5
  Binding of serum 2 to looped/cyclic peptide (PEPSCAN-ELISA): 0.3
  Binding of serum 6 to linear peptides of protein X1 of SARS-CoV Urbani: 0.4
  Binding of serum 6 to looped/cyclic peptide (PEPSCAN-ELISA): 0.3
  Binding of serum 37 to linear peptides of protein X1 of SARS-CoV Urbani: 0.5
  Binding of serum 37 to looped/cyclic peptide (PEPSCAN-ELISA): 0.5
  Binding of serum 62 to linear peptides of protein X1 of SARS-CoV Urbani: 0.6
  Binding of serum 62 to looped/cyclic peptide (PEPSCAN-ELISA): 0.5
  Binding of serum London to linear peptides of protein X1 of SARS-CoV Urbani: 0.3
  Binding of serum London to looped/cyclic peptide (PEPSCAN-ELISA): 0.2
  Binding of serum SARS-green to linear peptides of protein X1 of SARS-CoV Urbani: 0.2
  Binding of serum SARS-green to looped/cyclic peptide (PEPSCAN-ELISA): 0.2
  Binding of serum SARS-yellow to linear peptides of protein X1 of SARS-CoV Urbani: 0.5
  Binding of serum SARS-yellow to looped/cyclic peptide (PEPSCAN-ELISA): 0.4
[3]
  Binding of Control Serum Blood-Bank to Looped peptides: 0.4
  Binding of Control serum Blood-bank to linear peptides: 0.4
  Binding of Control serum LUMC to linear peptides: 0.5
  Binding of Control serum LUMC to looped peptides: 0.5

## GHLRMAGHPLGRCDI
[1]
  Rabbit serum linear peptides: 0.4
  Rabbit serum looped peptides: 0.7

## GHPLGRCDTKDLPKE
[1]
  Rabbit serum linear peptides: 0.3
  Rabbit serum looped peptides: 0.0

## GNSPFHPLADNKFAL
[1]
  Rabbit serum linear peptides: 0.5
  Rabbit serum looped peptides: 1.0

## GTHITMTTVYHITVS
[1]
  Binding of a rabbit serum to linear peptides: 2.1
  Binding of a rabbit serum to looped peptides: 0.4

## HEGHQTAAFRDVLVV
[1]
  Rabbit serum linear peptides: 0.2
  Rabbit serum looped peptides: 0.8

## IARCWYLHEGHQTAA
[1]
  Rabbit serum linear peptides: 0.7
  Rabbit serum looped peptides: 0.3

## IIRGHLRMAGHPLGR
[1]
  Rabbit serum linear peptides: 0.6
  Rabbit serum looped peptides: 2.0

## IMRCWLCWKGKSKNP
[1]
  Binding of a rabbit serum to linear peptides: 0.1
  Binding of a rabbit serum to looped peptides: 0.3

## KQLLEQWNLVIGFLF
[2]
  Binding of serum 1a to linear peptides of protein M of SARS-CoV Urbani: 0.7
  Binding of serum 1a to looped/cyclic peptides of protein M of SARS-CoV Urbani: 0.7
  Binding of serum 1b to linear peptides of protein M of SARS-CoV Urbani: 0.6
  Binding of serum 1b to looped/cyclic peptides of protein M of SARS-CoV Urbani: 0.6
  Binding of serum 2 to linear peptides of protein M of SARS-CoV Urbani: 0.4
  Binding of serum 2 to looped/cyclic peptides of protein M of SARS-CoV Urbani: 0.5
  Binding of serum 6 to linear peptides of protein M of SARS-CoV Urbani: 0.3
  Binding of serum 6 to looped/cyclic peptides of protein M of SARS-CoV Urbani: 1.0
  Binding of serum 37 to linear peptides of protein M of SARS-CoV Urbani: 0.3
  Binding of serum 37 to looped/cyclic peptides of protein M of SARS-CoV Urbani: 0.5
  Binding of serum 62 to linear peptides of protein M of SARS-CoV Urbani: 0.4
  Binding of serum 62 to looped/cyclic peptides of protein M of SARS-CoV Urbani: 0.7
  Binding of serum London to linear peptides of protein M of SARS-CoV Urbani: 0.3
  Binding of serum London to looped/cyclic peptides of protein M of SARS-CoV Urbani: 0.3
  Binding of serum SARS-green to linear peptides of protein M of SARS-CoV Urbani: 0.4
  Binding of serum SARS-green to looped/cyclic peptides of protein M of SARS-CoV Urbani: 0.4
  Binding of serum SARS-yellow to linear peptides of protein M of SARS-CoV Urbani: 0.2
  Binding of serum SARS-yellow to looped/cyclic peptides of protein M of SARS-CoV Urbani: 0.8
[3]
  Binding of Control Serum Blood-Bank to Looped peptides of the protein M of SARS-CoV Urbani: 0.6
  Binding of Control serum Blood-bank to linear peptides of the protein M of SARS-CoV Urbani: 0.5
  Binding of Control serum LUMC to linear peptides of the protein M of SARS-CoV Urbani: 0.6
  Binding of Control serum LUMC to looped peptides of the protein M of SARS-CoV Urbani: 0.7

## LFAGTHITMTTVYHI
[1]
  Binding of a rabbit serum to linear peptides: 0.6
  Binding of a rabbit serum to looped peptides: 0.5

## MMPTTLFAGTHITMT
[1]
  Binding of a rabbit serum to linear peptides: 0.6
  Binding of a rabbit serum to looped peptides: 0.6

## MPTTLFAGTHITMTT
[1]
  Binding of a rabbit serum to linear peptides: 0.7
  Binding of a rabbit serum to looped peptides: 0.3

## MVQTCTPNVTINCQD
[1]
  Rabbit serum linear peptides: 0.5
  Rabbit serum looped peptides: 0.2

## NASPASTVHATATIP
[1]
  Binding of a rabbit serum to linear peptides: 0.6
  Binding of a rabbit serum to looped peptides: 0.3

## NSPFHPLADNKFALT
[1]
  Rabbit serum linear peptides: 0.5
  Rabbit serum looped peptides: 0.7

## PASTVHATATIPLQA
[1]
  Binding of a rabbit serum to linear peptides: 0.9
  Binding of a rabbit serum to looped peptides: 0.5

## PTTLFAGTHITMTTV
[1]
  Binding of a rabbit serum to linear peptides: 0.8
  Binding of a rabbit serum to looped peptides: 0.4

## SPASTVHATATIPLQ
[1]
  Binding of a rabbit serum to linear peptides: 1.0
  Binding of a rabbit serum to looped peptides: 0.4

## STVHATATIPLQASL
[1]
  Binding of a rabbit serum to linear peptides: 0.6
  Binding of a rabbit serum to looped peptides: 0.5

## TITVEELKQLLEQWN
[1]
  Recognition of the peptide by the rabbit serum: recognized

## TLFAGTHITMTTVYH
[1]
  Binding of a rabbit serum to linear peptides: 0.7
  Binding of a rabbit serum to looped peptides: 0.5

## TTLFAGTHITMTTVY
[1]
  Binding of a rabbit serum to linear peptides: 0.6
  Binding of a rabbit serum to looped peptides: 0.3

## VEELKQLLEQWNLVI
[1]
  Recognition of the peptide by the rabbit serum: recognized

## YEGNSPFHPLADNKF
[1]
  Rabbit serum linear peptides: 0.6
  Rabbit serum looped peptides: 0.5

## YLHEGHQTAAFRDVL
[1]
  Rabbit serum linear peptides: 0.2
  Rabbit serum looped peptides: 0.6
